In ChEMBL document CHEMBL1156829 (Proc Natl Acad Sci U S A, 2008):

How the values were obtained:
Plasmodium falciparum [1] = assay: NOVARTIS: Inhibition of Plasmodium falciparum W2 (drug-resistant) proliferation in erythrocyte-based infection assay; format: functional, organism-based; conditions: Plasmodium falciparum, W2; read-out: EC50
[2] = NOVARTIS: Cytotoxicity against human hepatocellular carcinoma cell line (Huh7); format: toxicity, cell-based, Huh-7; conditions: Huh7 cells (hepatocellular carcinoma cell line)
Plasmodium falciparum [3] = assay: NOVARTIS: Inhibition of Plasmodium falciparum 3D7 (drug-susceptible) proliferation in erythrocyte-based infection assay; format: functional, organism-based; conditions: Plasmodium falciparum, 3D7

Row | SMILES | EC50 (Plasmodium falciparum [1]) [nM] | CC50 [2] [nM] | EC50 (Plasmodium falciparum [3]) [nM]
1 | Nc1cc(C(=O)Nc2ccc(C3=NCCN3)cc2)ccc1C(=O)Nc1ccc(C2=NCCN2)cc1 | 179 | 90600 | 290
2 | CCN(CC)CCCNc1ccnc2cc3ccccc3cc12 | 51.8 | 26200 | 33.8
3 | Cc1ccccc1NC(=O)N1CCN(C(=O)c2nc(-c3ccccc3)nc(C)c2C(=O)OC(C)C)CC1C (stereo not given) | 99.5 | 51900 | 135
4 | CCCCNC(=O)N1CCN(C(=O)C(Cc2c[nH]c3ccccc23)NC(=O)Nc2cccc(C#N)c2)CC1C (stereo not given) | 191 | > 100000 | 154
5 | COc1cccc(C2C(C(=O)Nc3ccc(C)cc3C)=C(C)Nc3c(C(=O)Nc4ccccc4)cnn32)c1 (stereo not given) | 190 | > 100000 | 590
6 | CCOC(=O)C1=C(C)NC2=C(C(=O)CC(c3ccc(OC)cc3)C2)C1c1cccs1 (stereo not given) | 189 | > 100000 | 833
7 | COc1cc(-c2nc(-c3ccc(C)c(C)c3)c(-c3ccc(C)c(C)c3)[nH]2)cc(OC)c1O | 132 | 61200 | 93
8 | C=CC1CN2CCC1CC2C(OC(C)=O)c1ccnc2ccc(OC)cc12 (stereo not given) | 213 | > 100000 | 240
9 | Cc1cc(Nc2cccc([N+](=O)[O-])c2)nc2cc(O)ccc12 | 75.1 | 36300 | 672
10 | Cc1ccc(NC(c2ccccc2)(c2ccccc2)c2ccccc2)cc1C | 207 | > 100000 | 439
11 | CC(=NNc1nc(-c2ccccc2O)nc2ccccc12)c1ccccc1O | 206 | > 100000 | 742
12 | COC(=O)C1=C(C)NC2=C(C(=O)CC(c3ccccc3)C2)C1c1cc(C)sc1SC (stereo not given) | 205 | > 100000 | 671
13 | COc1cccc(C(NC(=O)c2ccccc2)c2ccc3cccnc3c2O)c1 (stereo not given) | 216 | > 100000 | 134
14 | CC(=O)N(C1=C(N2CCCCC2)C(=O)c2ccccc2C1=O)c1ccc(F)c(F)c1 | 94.7 | 47700 | 238
15 | COC(=O)c1ccc(N(C(=O)Cc2c[nH]c3ccccc23)C(C(=O)NC2CCCCC2)c2ccccc2F)cc1 (stereo not given) | 197 | > 100000 | 200
16 | COc1ccc(CN2CCOc3ccc(C(C)(O)CN(C)C)cc3C2)cc1C (stereo not given) | 193 | > 100000 | 823
17 | Cc1ccc(NC(=O)C2c3ccccc3C(=O)N(CC(C)C)C2c2cccs2)c(Cl)c1 (stereo not given) | 191 | > 100000 | 305
18 | Cc1ccn2c(NC(C)(C)CC(C)(C)C)c(-c3ccccc3OC(=O)Cc3ccccc3)nc2c1 | 21.6 | > 10000 | 926

Row | SMILES | EC50 (Plasmodium falciparum [1]) [nM] | CC50 [2] [nM] | EC50 (Plasmodium falciparum [3]) [nM]
19 | Cc1ccn2c(NC(C)(C)CC(C)(C)C)c(-c3ccccc3OC(=O)c3ccc(C(F)(F)F)cc3)nc2c1 | 19.9 | > 10000 | 847
20 | COc1ccc(C2CC(=O)C3=C(C2)NC(C)=C(C(=O)OC(C)C)C3c2cccc(Cl)c2)cc1OC (stereo not given) | 31.8 | 16000 | 71.3
21 | c1ccc(-c2nn(-c3ccccc3)[n+](-c3ccccc3)n2)cc1 | 207 | > 100000 | 296
22 | Oc1ccc(-c2ccccc2)cc1CN1CCC(c2ccccc2)CC1 | 204 | > 100000 | 2420
23 | N=c1c2c(n(Cc3ccc(F)cc3)c3c1CCC3)CCC2 | 202 | > 100000 | 266
24 | CCOC(=O)c1ccc(Nc2nc(N)c3cc(OC)c(OC)cc3n2)cc1 | 200 | > 100000 | 482
25 | OC(CN1CCN(C/C=C/c2ccccc2)CC1)Cn1c2ccc(Br)cc2c2cc(Br)ccc21 (stereo not given) | 19.2 | > 10000 | 589
26 | CCCc1nc2ccc(NC(=O)c3ccccc3F)cc2c(=O)n1Cc1ccc(-c2ccccc2)cc1 | 217 | > 100000 | 1080
27 | COc1ccc(C2=C(Nc3ccc(Br)c(C)c3)c3ccccc3C2=O)cc1 | 202 | > 100000 | 185
28 | COc1ccc(N=Nc2nc3ccc(Br)cc3n2C)cc1 | 199 | > 100000 | 197
29 | Clc1ccc2c(N3CCCC3)ccnc2c1 | 124 | 64500 | 283
30 | OC(CN1CCN(Cc2ccccc2)CC1)Cn1c2ccc(Br)cc2c2cc(Br)ccc21 (stereo not given) | 57.3 | 29000 | 296
31 | CC(C)COc1nc(-c2ccccc2)n(S(=O)(=O)c2cccc3cccnc23)n1 | 4.56 | > 2160 | 42.3
32 | Cc1ccn2c(NC(C)(C)CC(C)(C)C)c(-c3ccccc3OC(=O)c3ccc(Br)cc3)nc2c1 | 148 | 75000 | 740
33 | NCC(=O)N1CCn2c(nc(-c3ccccc3)c2Nc2ccc3c(c2)OCO3)C1 | 198 | > 100000 | 162
34 | O=C(c1ccc(N2CC3CC(C2)c2cccc(=O)n2C3)c(NS(=O)(=O)c2ccc3c(c2)OCCO3)c1)N1CCN(c2ccccn2)CC1 (stereo not given) | 194 | > 100000 | 2020
35 | Cc1ccn2c(NC(C)(C)CC(C)(C)C)c(-c3ccccc3OC(=O)CCCCl)nc2c1 | 20.2 | > 10000 | 753
